Reference: patent US3954893A, “New halogenated cyclobutanes” (W. R. Grace & Co., priority 1975, dated 1976)

Tested on: mice
Test: Standard test for evaluation of inhalation anesthetics (rotating drum, 10 minutes exposure; AC50, LC50, AI)
Format: in vivo
Conditions: calculated from AC50 and LC50, mice; 10 min
Protocol: (§1) In this test, mice were exposed to the compounds for a period of 10 minutes in a rotating drum. Observations were then made of the pinch reflex, the corneal reflex and the return of the righting reflex. At least four graded doses were employed to determine the minimum concentration required to anesthetize 50% of the mice used (AC50) and the minimum concentration required to kill 50% of the mice (LC50). The anesthetic index (AI) was then calculated from these minimum concentrations. The data obtained with the compounds of Examples I to XIII are presented in Table 2 along with, for comparison purposes, results obtained from similar testing of 1,2-dihydrohexafluorocyclobutane, the compound of the prior art, a closely related analog, 1,1,2,2-tetrafluorocyclobutane, and another chlorofluoro anesthetic, 1,1,2-trichloro-2,3,3-trifluorocyclobutane.

SMILES | AI (anesthetic index)
FC1(F)CC(Cl)C1(F)Cl (centres unmarked) [I, b.p. 104°C] | 4

Same assay, conditions: mice, inhalation, 10 minutes exposure in rotating drum; where two percentages are given the actual vapor concentration lies between them

SMILES | AC50 (minimum concentration required to anesthetize 50% of the mice) | LC50 (minimum concentration required to kill 50% of the mice)
FC1(F)CC(F)(Cl)C1(F)F (centres unmarked) [V, 1-chloro-1,2,2,3,3-pentafluorocyclobutane] | 2 % volume | 10 % volume
FC1(F)CC(Cl)C1(F)Cl (centres unmarked) [I, b.p. 107°C] | 0.2 % volume | 1.2 % volume
FC1(F)CCC1(F)Br (centres unmarked) [VIII, 1-bromo-1,2,2-trifluorocyclobutane] | < 0.5 % volume | 3.5 % volume
FC1(F)CC(F)(Cl)C1(F)Cl (centres unmarked) [III, 1,4-dichloro-1,2,2,4-tetrafluorocyclobutane] | 0.43-2 % volume | 2-3 % volume
FC1CCC1(F)F (centres unmarked) [VII, 1,2,2-trifluorocyclobutane] | < 4 % volume | 8 % volume
FC1CC(F)(F)C1(F)Cl (centres unmarked) [II, 1-chloro-1,2,2,4-tetrafluorocyclobutane] | 0.5 % volume | 3-3.5 % volume
CC1CC(F)(F)C1(F)Br (centres unmarked) [IX, 1-bromo-2-methyl-1,4,4-trifluorocyclobutane] | 0.5-1 % volume | 1.5-1.75 % volume
FC1(F)CC(Cl)(Cl)C1(F)Cl (centres unmarked) [XIII, 1,1,2-trichloro-2,3,3-trifluorocyclobutane, reference compound] | 0.2 % volume | 1 % volume
FC1C(Cl)CC1(F)F (centres unmarked) [IV, 1-chloro-2,3,3-trifluorocyclobutane] | 0.75-1 % volume | ≥ 4 % volume
FC1(F)CCC1(F)F [Example XII, 1,1,2,2-tetrafluorocyclobutane, reference compound] | 4 % volume | 12 % volume
FC1CC(F)(F)C1Cl (centres unmarked) [VI, 1-chloro-2,4,4-trifluorocyclobutane] | < 1 % volume | 2 % volume
FC1(F)CC(Cl)C1(F)Cl (centres unmarked) [I, b.p. 104°C] | 0.2 % volume | 0.8 % volume
FC1(F)CC(Cl)C1(F)Br (centres unmarked) [Example X, 1-bromo-2-chloro-1,4,4-trifluorocyclobutane] | < 0.2 % volume | 0.5 % volume

Tested on: not listed separately
Test: as above
Format: in vivo, mice
Conditions: mouse, in vivo, inhaled or intranasal, calculated from AC50 and LC50, mice; read-out: AI (anesthetic index)
Protocol: as §1

SMILES | selectivity ratio at 10 min
FC1(F)CC(F)(Cl)C1(F)F (centres unmarked) [V, 1-chloro-1,2,2,3,3-pentafluorocyclobutane] | 5
FC1(F)CC(Cl)C1(F)Cl (centres unmarked) [I, b.p. 107°C] | 6
FC1(F)CCC1(F)Br (centres unmarked) [VIII, 1-bromo-1,2,2-trifluorocyclobutane] | ≥ 7
FC1(F)CC(F)(Cl)C1(F)Cl (centres unmarked) [III, 1,4-dichloro-1,2,2,4-tetrafluorocyclobutane] | ≥ 1
FC1CCC1(F)F (centres unmarked) [VII, 1,2,2-trifluorocyclobutane] | ≥ 2
FC1CC(F)(F)C1(F)Cl (centres unmarked) [II, 1-chloro-1,2,2,4-tetrafluorocyclobutane] | ≥ 6
FC(F)(F)C(Cl)Br (centres unmarked) [halothane, reference compound] | ~3
CC1CC(F)(F)C1(F)Br (centres unmarked) [IX, 1-bromo-2-methyl-1,4,4-trifluorocyclobutane] | ≥ 1.5
FC1(F)CC(Cl)(Cl)C1(F)Cl (centres unmarked) [XIII, 1,1,2-trichloro-2,3,3-trifluorocyclobutane, reference compound] | 5
FC1C(Cl)CC1(F)F (centres unmarked) [IV, 1-chloro-2,3,3-trifluorocyclobutane] | ≥ 4
FC1(F)CCC1(F)F [Example XII, 1,1,2,2-tetrafluorocyclobutane, reference compound] | 3
FC1CC(F)(F)C1Cl (centres unmarked) [VI, 1-chloro-2,4,4-trifluorocyclobutane] | ≥ 2
FC1(F)CC(Cl)C1(F)Br (centres unmarked) [Example X, 1-bromo-2-chloro-1,4,4-trifluorocyclobutane] | ≥ 2.5

Tested on: mice
Test: Observation after exposure: survival, delayed death, convulsions
Format: in vivo
Conditions: mice, retested in the manner of Examples I to X, XII and XIII; after apparent recovery from anesthesia
Protocol: as §1
In contrast to these findings, all test mice used in Example I to X were still living one week after exposure.
This compound, which is one of the numerous halogenated cyclobutanes that have been found deleterious, is of particular interest in that its close structural relationship to the 1,2-dihydrohexafluorocyclobutane isomers of the art and to the useful trifluoro (Ex. VII) homolog disclosed above provides a good illustration of the unpredictability in physiological behavior in the field of anesthesia.

SMILES | Delayed death
FC1(F)CC(Cl)(Cl)C1(F)Cl (centres unmarked) [XIII, 1,1,2-trichloro-2,3,3-trifluorocyclobutane, reference compound] | The same "delayed death" phenomenon has been observed

Same assay, conditions: on further observation

SMILES | Convulsions
FC1(F)CCC1(F)F [Example XII, 1,1,2,2-tetrafluorocyclobutane, reference compound] | proved to be a convulsant on further observation

Tested on: not given
Test: not given
Conditions: cis- and trans- isomers, values reported by Burns et al; cited from earlier work

SMILES | AC50 (anesthetic concentration)
FC1C(F)C(F)(F)C1(F)F (centres unmarked) [XI, b.p. 26°] | 10.5 % volume
FC1C(F)C(F)(F)C1(F)F (centres unmarked) [XI, b.p. 63°] | 1.9 % volume

Tested on: not given
Test: not given
Conditions: review of the art; cited from earlier work

SMILES | Anesthetic properties / toxicity in the prior art
FC1C(F)C(F)(F)C1(F)F (centres unmarked) [1,2-dihydrohexafluoro-, 1,2-dihydrohexafluorocyclobutane] | said to possess anesthetic properties
FC1(F)C(F)(F)C(F)(F)C1(F)F [octafluoro-] | inactive
FC1(F)C(F)(F)C(F)(Cl)C1(F)Cl (centres unmarked) [1,2-dichlorohexafluoro-] | toxic
C1CC1 [cyclopropane] | effective if inflammable anesthetic

Tested on: air-breathing mammals
Test: Inhalation anesthetic properties of the compounds
Format: in vivo
Conditions: administered in concentrations within the useful range
Protocol: as §1

SMILES | Convulsions and death
FC1(F)CC(F)(Cl)C1(F)F (centres unmarked) [V, 1-chloro-1,2,2,3,3-pentafluorocyclobutane] | not cause convulsions and death
FC1(F)CCC1(F)Br (centres unmarked) [VIII, 1-bromo-1,2,2-trifluorocyclobutane] | not cause convulsions and death
FC1(F)CC(F)(Cl)C1(F)Cl (centres unmarked) [III, 1,4-dichloro-1,2,2,4-tetrafluorocyclobutane] | not cause convulsions and death
FC1CCC1(F)F (centres unmarked) [VII, 1,2,2-trifluorocyclobutane] | not cause convulsions and death
FC1(F)CC(Cl)C1(F)Cl (centres unmarked) [1,4-dichloro-1,2,2-trifluorocyclobutane] | not cause convulsions and death
FC1CC(F)(F)C1(F)Cl (centres unmarked) [II, 1-chloro-1,2,2,4-tetrafluorocyclobutane] | not cause convulsions and death
CC1CC(F)(F)C1(F)Br (centres unmarked) [IX, 1-bromo-2-methyl-1,4,4-trifluorocyclobutane] | not cause convulsions and death
FC1C(Cl)CC1(F)F (centres unmarked) [IV, 1-chloro-2,3,3-trifluorocyclobutane] | not cause convulsions and death
FC1CC(F)(F)C1Cl (centres unmarked) [VI, 1-chloro-2,4,4-trifluorocyclobutane] | not cause convulsions and death
FC1(F)CC(Cl)C1(F)Br (centres unmarked) [Example X, 1-bromo-2-chloro-1,4,4-trifluorocyclobutane] | not cause convulsions and death

Same assay, conditions: in vivo

SMILES | Inhalation anesthetic properties
FC1(F)CC(F)(Cl)C1(F)F (centres unmarked) [V, 1-chloro-1,2,2,3,3-pentafluorocyclobutane] | found to possess inhalation anesthetic properties
FC1(F)CCC1(F)Br (centres unmarked) [VIII, 1-bromo-1,2,2-trifluorocyclobutane] | found to possess inhalation anesthetic properties
FC1(F)CC(F)(Cl)C1(F)Cl (centres unmarked) [III, 1,4-dichloro-1,2,2,4-tetrafluorocyclobutane] | found to possess inhalation anesthetic properties
FC1CCC1(F)F (centres unmarked) [VII, 1,2,2-trifluorocyclobutane] | found to possess inhalation anesthetic properties
FC1(F)CC(Cl)C1(F)Cl (centres unmarked) [1,4-dichloro-1,2,2-trifluorocyclobutane] | found to possess inhalation anesthetic properties
FC1CC(F)(F)C1(F)Cl (centres unmarked) [II, 1-chloro-1,2,2,4-tetrafluorocyclobutane] | found to possess inhalation anesthetic properties
CC1CC(F)(F)C1(F)Br (centres unmarked) [IX, 1-bromo-2-methyl-1,4,4-trifluorocyclobutane] | found to possess inhalation anesthetic properties
FC1C(Cl)CC1(F)F (centres unmarked) [IV, 1-chloro-2,3,3-trifluorocyclobutane] | found to possess inhalation anesthetic properties
FC1CC(F)(F)C1Cl (centres unmarked) [VI, 1-chloro-2,4,4-trifluorocyclobutane] | found to possess inhalation anesthetic properties
FC1(F)CC(Cl)C1(F)Br (centres unmarked) [Example X, 1-bromo-2-chloro-1,4,4-trifluorocyclobutane] | found to possess inhalation anesthetic properties
